# Results as given in the NIST ThermoML archive (doi:10.1021/je8003673).
# Numbers after ± are expanded uncertainties.
# Conditions: Crystal; DTA
structure (smiles),measurement,value
"Nc1ccc(N)c2c1C(=O)c1ccccc1C2=O [1,4-diaminoanthraquinone]",Normal melting temperature,243.12 ± 0.5 °C
